# Laboratory results as given in patent US9314485B2, “Use of PI3K M-TOR and AKT inhibitors to induce FOXP3 expression and generate regulatory T cells” (Medical Research Council, priority 2006, dated 2016).
# System: naive CD62LhiCD4+CD25− LN T cells
# Assay: Foxp3 induction in newly activated naive CD4 T cells (intracellular staining)
# Format: cell-based, mouse
substance,measurement,setting,value
TGFβ,percentage of cells expressing Foxp3,"added 18 hours after activation with TCR signal deprivation, read within 24-48 hours",46.0±15.1%
same,"% Foxp3+ cells, activation with anti-TCR only","no costimulation, average of two experiments",7%
same,"Foxp3 expression in control cultures, TCR signal deprived cultures subtracted","serum free AIM-V medium, without anti TGFβ and SB431542, 24-48 hours / 2 days",22.3±7.0%
same,"% Foxp3+ cells, activation with anti-TCR + anti-CD28","with costimulation, average of two experiments",46%
